Experimental data: US7923471B2, “Method of treating dry eye disorders and uveitis” (Alcon, Inc., priority 2004, dated 2011)
Marks after values point to notes of the source that are not given here.

Key:
neutrophils = details: compared with lipoxin A4; cited from earlier work
rabbit model of dry eye [1] = experiment: Rabbit model of dry eye (lacrimal gland ConA injection followed by desiccation): tear breakup time (TBUT); assay type: in vivo, New Zealand white rabbits; details: ConA-injected rabbit eyes, baseline = saline-injected, vehicle-treated eyes
Description: A second group of animals was evaluated for tear film quality by measuring each animal's tear breakup time (TBUT). Using the same experimental protocol as above for inducing rabbit ocular damage, TBUT was determined daily by instilling 5 μL of sodium fluorescein into the cul de sac and manually blinking the lids to distribute the fluroescein within the tear film. Under slit lamp observation, the eye was held open and the time whereby one or more black spots or streaks appeared in the precorneal tear film was recorded. The rabbits were euthanized 3 days following ConA injection. Larger TBUT values indicate better tear film quality and more protection from ocular damage. TBUT data is expressed as % of baseline, with baseline TBUT being that observed for saline-injected, vehicle-treated eyes.
(§1) The % inhibition of corneal staining and TBUT data are presented below in table 1, with 15S-HETE (Biomol Research Laboratories, Plymouth Meeting, Pa.) treatment of ConA-injected eyes used as a positive control.

rabbit model of dry eye [2] = experiment: Rabbit model of dry eye (lacrimal gland ConA injection followed by desiccation): corneal staining with methylene blue; assay type: in vivo, New Zealand white rabbits; details: 50 μl topical twice a day, ConA-injected rabbit eyes, 72 h desiccation
Description: Compound 1 was evaluated in a rabbit model of dry eye. New Zealand white rabbits (approximately 2.5 kg; obtained from Myrtle's Rabbitry, Thompson Station, Tenn.) were randomized and dosed topically twice a day with either 50 μl of compound 1 formulated in 0.064%/BSS® at concentrations of 1, 10, or 100 μM, or with 0.064%/BSS® vehicle. After 24 h the rabbits were anesthetized by subcutaneous administration of ketamine hydrochloride (30 mg/kg) and xylazine (6 mg/kg) and each rabbit received bilateral injections of Conconavilin A (ConA) (300 μg/30 μl) or saline (30 μl). Desiccation was initiated one day following lacrimal gland injection by placing conscious animals in an environmental chamber (20-30% humidity, […]). Following 72 hours of exposure to environment, the animals were assessed for corneal staining upon exposure of the cornea to the dye methylene blue; less staining indicates less damage to the cornea. The rabbits were anesthetized by subcutaneous administration of ketamine hydrochloride (30 mg/kg) and xylazine (6 mg/kg). Sutures were placed in each upper and lower eyelid and lifted to form a corneal/conjunctival cup. Methylene blue dye (1 mL, 1% in distilled water) was added to the cup for five minutes and the excess removed by washing with 200 mL of BSS®. The contralateral eye was then stained using the same procedure. Rabbits were euthanized immediately following the staining procedure and the eyes were excised. The corneas were isolated and a 9.5 mm punch of the cornea was placed overnight in 2 mL of acetone/saturated sodium sulfate (7:3 v/v). The concentration of the extracted dye was determined spectrophotometrically by measuring its absorbance at λ=660 nanometers (A660). Percent inhibition was calculated as {1−[(A660test item−A660Normal)/(A660BSS−A660Normal)]}×100, where A660test item is the absorbance of dye from ConA-injected eyes dosed with compound 1, A660Normal is the absorbance of dye from saline-injected eyes, and A660BSS is the absorbance of dye in ConA-injected eyes dosed with 0.064% ethanol/BSS® solution vehicle. A higher percent inhibition of staining indicates more protection of the cornea from damage.
as §1

[3] = tested on: endotoxin-induced uveitis in rats; experiment: Endotoxin-induced uveitis in rats: ocular neutrophil (PMN) content by myeloperoxidase activity; assay type: in vivo, female Lewis rats; details: 24 h post endotoxin; for Myeloperoxidase (x ± standard deviation): 5 μL topical ocular at endotoxin injection and 4 h later, vehicle 164 ± 46
Description: Compound 1 was evaluated for its ability to suppress neutrophil influx into the rat eye in a model of endotoxin-induced uveitis. The compound was prepared at concentrations of 0.01%, 0.1%, 1.0% w/v in an ophthalmic suspension vehicle, and dexamethasone (Sigma-Aldrich Company, St. Louis, Mo.) formulated in the same vehicle served as reference compound. Uveitis was induced by subplantar injection of endotoxin (200 μg in 0.1 mL saline) in the right hind paw of female Lewis rats (5/group). Test compound of vehicle (5 μL) was administered topically to each eye of the experimental animals at the time of endoxtoxin injection and again 4 hours later. Twenty four hours post endotoxin injection, animals were sacrificed by CO2 inhalation, and total ocular neutrophil (PMN) content was assessed indirectly by determination of myeloperoxidase activity. Ocular PMN content in each group was then compared with that observed in the vehicle-treated group using Dunnet's t-test.

SMILES | inhibition of LTB4-induced chemotaxis of neutrophils (neutrophils) | TBUT, % of Baseline, ±S.D. (rabbit model of dry eye [1]; 1 μM topical twice a day) | % Inhibition of Corneal Staining, ±S.D. (rabbit model of dry eye [2]; 1 μM) | % inhibition (myeloperoxidase / ocular PMN content vs vehicle) ([3]; 0.1 % w/v topical ocular) | Myeloperoxidase (x ± standard deviation) ([3]; 0.1 % w/v) | further results
CCCCC[C@H](O)[C@H](O)CO [Compound 2] | as potently as lipoxin A4 | – | – | – | – | –
CCCCC[C@H](O)/C=C/C=C\C/C=C\C/C=C\CCCC(=O)O [Compound 15S-HETE, 15S-HETE, reference compound] | – | 54 ± 21^b % of Baseline | 77 ± 18^b % | – | – | –
COC(=O)CCC[C@H](O)[C@H](O)CO [Compound 1] | as potently as lipoxin A4 | 67 ± 17^b % of Baseline | 75 ± 12^b % | 2% | 161 ± 37 μM/min/100 mg | TBUT, % of Baseline, ±S.D. (rabbit model of dry eye [1]; 10 μM topical twice a day): 45 ± 17^b % of Baseline; TBUT, % of Baseline, ±S.D. (rabbit model of dry eye [1]; 100 μM topical twice a day): 51 ± 18^b % of Baseline; % inhibition (myeloperoxidase / ocular PMN content vs vehicle) ([3]; 0.01 % w/v topical ocular): 13%; Myeloperoxidase (x ± standard deviation) ([3]; 0.01 % w/v): 143 ± 64 μM/min/100 mg; % inhibition (myeloperoxidase / ocular PMN content vs vehicle) ([3]; 1.0 % w/v topical ocular): 41* %; Myeloperoxidase (x ± standard deviation) ([3]; 1.0 % w/v): 97 ± 35 μM/min/100 mg; % Inhibition of Corneal Staining, ±S.D. (rabbit model of dry eye [2]; 10 μM): 54 ± 9^b,c %; % Inhibition of Corneal Staining, ±S.D. (rabbit model of dry eye [2]; 100 μM): 38 ± 34^b,c %
C[C@@H]1C[C@H]2[C@@H]3CCC4=CC(=O)C=C[C@]4(C)[C@@]3(F)[C@@H](O)C[C@]2(C)[C@@]1(O)C(=O)CO [Dexamethasone, dexamethasone, reference compound] | – | – | – | 91* % | 15 ± 7 μM/min/100 mg | –
